In PMC7269505, “An Engineered Double Lipid II Binding Motifs-Containing Lantibiotic Displays Potent and Selective Antimicrobial Activity against Enterococcus faecium” (Antimicrobial Agents and Chemotherapy, 2020):
Several values for one entry are separate records, joined by “and”; a condition that tells them apart may be missing. Identical values can stand only once. Like-named read-outs stand apart in the source and are kept apart here. No end group written: not given here.

Experiments:
B. cereus ATCC 14579 = type: cell-based, Bacillus cereus
Experimental: (§1) MIC was evaluated by broth microdilution according to the standard guidelines ([45]). Briefly, the test medium was cation-adjusted Mueller-Hinton broth (MHB). Cell concentration was adjusted to approximately 5 × 10^5 cells per ml. After 20 h of incubation at 37°C, the MIC was defined as the lowest concentration of antibiotic with no visible growth. Each experiment was performed in triplicates.

B. cereus ATCC 10987 = type: cell-based, Bacillus cereus
Experimental: as §1

S. aureus LMG10147 = type: cell-based, Staphylococcus aureus
Experimental: as §1

[1] = system: E. faecium (LMG16003; vancomycin-resistant strain); test: Time-kill assay; type: cell-based, Enterococcus faecium; conditions: MHB, 37°C, CFU counts, triplicates
Experimental: This assay was performed according to a previously described procedure ([29]). An overnight culture of cells (Enterococcus faecium LMG 16003; vancomycin-resistant strain) was diluted 50-fold in MHB and incubated at 37°C with aeration at 220 rpm. Bacteria were grown to an OD of 0.5, and then the cell concentration was adjusted to ≈5 × 10^5 cells per ml. Bacteria were then challenged with nisin (20 μM), nisin(1-22) (600 μM), or TL19 (10 μM) in culture tubes at 37°C and 220 rpm. (peptides at 10× MIC, a desirable concentration at the site of infection). Bacteria not treated with peptides were used as a negative control. At desired time points, 100-μl aliquots were taken, centrifuged at 8,000 × g for 2 min, and resuspended in 100 μl of MHB. Ten-fold serially diluted samples were plated on Mueller-Hinton agar (MHA) plates. After incubating at 37°C overnight, colonies were counted and CFU per milliliter was calculated. Each experiment was performed in triplicates.

E. faecalis LMGV583 = type: cell-based, Enterococcus faecalis
Experimental: as §1

E. faecalis LMG8222 = type: cell-based, Enterococcus faecalis
Experimental: as §1

[2] = system: E. faecalis LMG16216 (VRE); type: cell-based, Enterococcus faecalis
Experimental: as §1

[3] = system: E. faecium ATCC E1321 (AGRE); type: cell-based, Enterococcus faecium
Experimental: as §1

[4] = system: E. faecium ATCC E1162 (ARE); type: cell-based, Enterococcus faecium
Experimental: as §1

E. faecium LMG11423 = type: cell-based, Enterococcus faecium
Experimental: as §1

[5] = system: E. faecium ATCC TX0082 (AEKVRE); type: cell-based, Enterococcus faecium
Experimental: as §1

[6] = system: E. faecium ATCC TX0133a04; type: cell-based, Enterococcus faecium
Experimental: as §1

E. faecium 6Tom18 = type: cell-based, Enterococcus faecium
Experimental: as §1

[7] = system: E. faecium LMG16003 (VRE); type: cell-based, Enterococcus faecium
Experimental: as §1

[8] = system: E. faecium ATCC HF50105 (ETVRE); type: cell-based, Enterococcus faecium
Experimental: as §1

E. faecium 4Tom19 = type: cell-based, Enterococcus faecium
Experimental: as §1

[9] = system: E. faecium LMG16003 cells; test: Propidium iodide assay for membrane pore formation; type: cell-based, Enterococcus faecium; conditions: peptide 3 μM, propidium iodide 2.5 μg per ml, monitored for 3 h, excitation 533 nm, emission 617 nm
Experimental: The excitation and emission wavelengths on the fluorescence spectrometer were adjusted to 533 nm and 617 nm, respectively. E. faecium LMG16003 was grown to an OD600 of 0.6. To this cell suspension, propidium iodide (final concentration, 2.5 μg per ml) was added and incubated for 5 min. Peptides were added to a final concentration of 3 μM. Fluorescence was monitored for 3 h, with the peptide added after ∼60 s.

A. baumannii LMG01041 = type: cell-based, Acinetobacter baumannii
Experimental: as §1

Escherichia coli GSK 12 = test: MIC by broth microdilution; type: cell-based; conditions: cation-adjusted MHB, approx. 5 × 10^5 cells per ml, 20 h, 37°C, triplicates
Experimental: as §1

E. faecium LMG16003 [10] = test: Antimicrobial activity of TL19 mutants (agar spot assay, Fig. 5d); type: cell-based, Enterococcus faecium; conditions: 1 nmol peptide, after removal of the leader peptide with NisP (Fig. 5d)
Source text: A highly conserved glutamate in HalA1 (Glu22) is essential for binding to its target lipid II ([12], [15], [16]). Mutating the glutamate residue in the CTLTXEC motif to alanine or glutamine completely abolished antibacterial activity ([15]). […] Therefore, either Glu34 in TL19 was mutated to Ala, Thr2 in TL19 was mutated to Asp, or both mutations were installed together in the same TL19 variant. […] NisC-catalyzed cyclization of the mutated peptides was investigated using CDAP treatment under reducing conditions followed by MS analysis.
FIG 5 Importance of both lipid II binding motifs for antimicrobial activity against E. faecium LMG16003. MALDI-TOF MS data of TL19 or TL19 mutants before (blue) and after (red) treated with CDAP. (a) TL19 (2Asp); (b) TL19 (34Ala); (c) TL19 (2Asp, 34Ala). (d) Antimicrobial activity for TL19 mutants against E. faecium LMG16003: 1, TL19 (1 nmol); 2, TL19 (2Asp) (1 nmol); 3, TL19 (34Ala) (1 nmol); 4, TL19 (2Asp, 34Ala) (1 nmol); 5, TL19 (2Asp) (1 nmol) plus TL19 (34Ala) (1 nmol); 6, negative control (buffer).

[11] = system: E. faecium ATCC U0317 (ACRE); test: MIC by broth microdilution; type: cell-based, Enterococcus faecium; conditions: cation-adjusted MHB, approx. 5 × 10^5 cells per ml, 20 h, 37°C, triplicates
Experimental: as §1

E. faecium = test: MIC comparison across E. faecium strains; type: cell-based, Enterococcus faecium; conditions: from MIC values; for higher antibacterial activity than nisin(1-22): antibiotic-resistant E. faecium
Experimental: as §1

Micrococcus flavus = test: Screening of antibacterial activity by spot-on-lawn assay; type: cell-based; conditions: TCA-precipitated peptide 5 μl plus 1 μl NisP, GM17 0.8% agar, 30°C overnight (Fig. S1)
Experimental: To assess the antibacterial activity of TCA-precipitated samples on a agar plate, an overnight culture of Micrococcus flavus was added to the GM17 containing 0.8% (wt/vol) agar (at 42°C), and then the mixture was poured onto the plates, 30 ml per plate. After that, 5 μl of the peptides together with 1 μl of NisP were added to the plates, and the plates were transferred to the 30°C incubator for incubation overnight.

[12] = Complex formation with lipid II by thin-layer chromatography; type: binding; conditions: TLC, lipid II-lys or lipid II-dap (Fig. 4b1 and b2), 4 nmol, 30 min at 25°C
Experimental: Purified lipid II-lys or lipid II-dap (4 nmol) was incubated in chloroform-methanol-water (2:3:1), in the presence of increasing TL19 concentrations (TL19/lipid II molar ratios ranging from 0.3 to 2:1) in a total volume of 30 μl. After incubating for 30 min at 25°C, the mixture was analyzed by thin-layer chromatography using chloroform-methanol-water-ammonia (88:48:10:1), and the spots were visualized by iodine vapor ([20], [26]).

E. faecium LMG16003 [13] = test: Spot-on-lawn assay to measure peptide-lipid II complex formation; type: cell-based, Enterococcus faecium; conditions: peptide 1 nmol, either lipid II-lys or lipid II-dap
Experimental: An overnight cultured E. faecium LMG16003 was added to 0.8% MHA (wt/vol; temperature, 42°C) at a final concentration of 0.1% (vol/vol), and then the mixture was poured onto the plates (30 ml for each). Binding of peptide and lipid II was further evaluated by incubating purified lipid II with peptide in various molar ratios ranging from 0.5 to 2 with respect to the peptides (1 nmol). Subsequently, a spot-on-lawn assay was used to analyze the antimicrobial activity. After the lipid II solution drops with peptide had dried, the plates were transferred to the 37°C incubator for overnight incubation.

[14] = broth microdilution, cation-adjusted MHB, approx. 5 × 10^5 cells per ml, 20 h, 37°C, triplicates

## C=C1NC(=O)[C@H]([C@@H](C)CC)NC(=O)[C@H](NC(=O)/C(=C/C)NC(=O)[C@@H](N)[C@@H](C)CC)CSC[C@@H](C(=O)N[C@H]2C(=O)N3CCC[C@H]3C(=O)NCC(=O)N[C@H](C(=O)N[C@@H](CCCCN)C(=O)N[C@H]3C(=O)NCC(=O)N[C@@H](C)C(=O)N[C@@H](CC(C)C)C(=O)N[C@@H](CCSC)C(=O)NCC(=O)N[C@H](C(=O)N[C@@H](CC(N)=O)C(=O)N[C@@H](CCSC)C(=O)N[C@@H](CCCCN)C(=O)O)CS[C@H]3C)CS[C@H]2C)NC(=O)[C@H](CC(C)C)NC1=O [Nisin(1-22), reference compound]
B. cereus ATCC 14579; ATCC 14579, 20 h
  MIC: 30 µM
B. cereus ATCC 14579; [14]
  MIC: 64 mg/L
B. cereus ATCC 10987; ATCC 10987, 20 h
  MIC: > 60 µM
B. cereus ATCC 10987; [14]
  MIC: > 128 mg/L
S. aureus LMG10147; LMG10147, 20 h
  MIC: 15 µM
S. aureus LMG10147; [14]
  MIC: 32 mg/L
[1]; 10× MIC: nisin(1-22) 600 μM
  effect on population of viable cells within 11 h postexposition: did not reduce the population of viable cells
  killing in 48 h: only slight killing was observed
E. faecalis LMGV583; LMGV583, 20 h
  MIC: > 60 µM
E. faecalis LMGV583; [14]
  MIC: > 128 mg/L
E. faecalis LMG8222; LMG8222, 20 h
  MIC: > 60 µM
E. faecalis LMG8222; [14]
  MIC: > 128 mg/L
[2]; LMG16216, 20 h
  MIC: > 60 µM
[2]; [14]
  MIC: > 128 mg/L
[3]; ATCC E1321, 20 h
  MIC: 60 µM
[3]; [14]
  MIC: 128 mg/L
[4]; ATCC E1162, 20 h
  MIC: > 60 µM
[4]; [14]
  MIC: > 128 mg/L
E. faecium LMG11423; LMG11423, 20 h
  MIC: 60 µM
E. faecium LMG11423; [14]
  MIC: 128 mg/L
[5]; ATCC TX0082, 20 h
  MIC: 60 µM
[5]; [14]
  MIC: 128 mg/L
[6]; ATCC TX0133, 20 h
  MIC: 60 µM
[6]; [14]
  MIC: 128 mg/L
E. faecium 6Tom18; 6Tom18, 20 h
  MIC: 30 µM
E. faecium 6Tom18; [14]
  MIC: 64 mg/L
[7]; LMG16003, 20 h
  MIC: 60 µM
[7]; [14]
  MIC: 128 mg/L
[8]; ATCC HF50105, 20 h
  MIC: 30 µM
[8]; [14]
  MIC: 64 mg/L
E. faecium 4Tom19; 4Tom19, 20 h
  MIC: 60 µM
E. faecium 4Tom19; [14]
  MIC: 128 mg/L
[9]
  pore formation (propidium iodide fluorescence increase): neither TL19 nor nisin(1-22) caused any fluorescence increase
A. baumannii LMG01041; LMG01041, 20 h
  MIC: > 60 µM
A. baumannii LMG01041; [14]
  MIC: > 128 mg/L
Escherichia coli GSK 12
  MIC: > 128 µg/mL

## IDSISLCTPGCKTGALMGCNMKTATCHYCTLTVACMPSCN [TL19 (2Asp, 34Ala)]
E. faecium LMG16003 [10]
  antimicrobial activity relative to TL19: decreased or completely abolished the antimicrobial activity

## IDSISLCTPGCKTGALMGCNMKTATCHYCTLTVECMPSCN [TL19 (2Asp), TL19 variant in which Thr2 was mutated to Asp]
E. faecium LMG16003 [10]
  antimicrobial activity relative to TL19: almost abolished the antimicrobial activity

## ITSISLCTPGCKTGALMGCNMKTATCHCTLTVECMPSCN (also: bicyclic or more (positions not given here)) [TL17, incompletely modified, not all rings formed]
[11]
  MIC: 7.5 μM and 29 μg/ml
E. faecium
  higher antibacterial activity than nisin(1-22): 16 fold
Micrococcus flavus
  antimicrobial activity against Micrococcus flavus: potent antimicrobial activity
Escherichia coli GSK 12
  MIC: > 15 μM and > 58 μg/ml

## ITSISLCTPGCKTGALMGCNMKTATCHYCTLTVACMPSCN [TL19 (34Ala)]
E. faecium LMG16003 [10]
  antimicrobial activity relative to TL19: severely reduced the antimicrobial activity

## ITSISLCTPGCKTGALMGCNMKTATCHYCTLTVECMPSCN (also: bicyclic or more (positions not given here)) [TL19, lantibiotic with seven thioether rings]
[11]
  MIC: 1.9 μM and 7.6 μg/ml
[1]; 10× MIC: nisin 20 μM, TL19 10 μM, ≈5 × 10^5 cells per ml
  time to complete killing: 24 h
E. faecium; E. faecium
  higher antibacterial activity than TL17: 4 fold
E. faecium
  higher antibacterial activity than nisin(1-22): 64 fold
Micrococcus flavus
  antimicrobial activity against Micrococcus flavus: potent antimicrobial activity
[12]
  lipid II migration at a low ratio (0.3:1) of TL19 to lipid II: lipid II migration was significantly inhibited
[9]
  pore formation (propidium iodide fluorescence increase): neither TL19 nor nisin(1-22) caused any fluorescence increase
Escherichia coli GSK 12
  MIC: > 15 μM and > 60 μg/ml
E. faecium LMG16003 [13]
  antibacterial activity upon addition of lipid II at a 1:1 (peptide/lipid II) ratio: still showed potent antibacterial activity
